Assay results reported in patent US10730870B2, “Compounds and methods for the enhanced degradation of targeted proteins” (Arvinas, Inc., priority 2015, dated 2020).

Target: VHL (Homo sapiens (Human), UniProt P40337)
Test: VHL fluorescence polarization (FP) competition assay
Format: binding

CC[C@H](C)[C@@H](C(=O)N1C[C@H](O)C[C@H]1C(=O)NCc1ccc(-c2scnc2C)cc1)N1Cc2ccccc2C1=O [Example 30, (2S,4R)-4-hydroxy-1-((2S,3S)-3-methyl-2-(1-oxoisoindolin-2-yl)pentanoyl)-N-(4-(4-methylthiazol-5-yl)benzyl)pyrrolidine-2-carboxamide] was tested, and the IC50 (0.25% in DMSO) was 2270 nM, the IC50 (1% in DMSO) was 572 nM and the IC50 (10% in DMSO) was 859 nM.
For Cc1ncsc1-c1ccc(CNC(=O)[C@@H]2C[C@@H](O)CN2C(=O)[C@H](C(C)C)N2Cc3c(C#N)cccc3C2=O)cc1 [Example 35, (2S,4R)-1-((S)-2-(4-cyano-1-oxoisoindolin-2-yl)-3-methylbutanoyl)-4-hydroxy-N-(4-(4-methylthiazol-5-yl)benzyl)pyrrolidine-2-carboxamide], the IC50 (0.25% in DMSO) was 2050 nM, the IC50 (1% in DMSO) was 509 nM and the IC50 (10% in DMSO) was 1300 nM.
For Cc1ncsc1-c1ccc(CNC(=O)[C@@H]2C[C@@H](O)CN2C(=O)[C@@H](NC(=O)CNC(=O)OC(C)(C)C)C(C)(C)C)cc1 [Example 124, tert-butyl 2-((S)-1-((2S,4R)-4-hydroxy-2-(4-(4-methylthiazol-5-yl)benzylcarbamoyl)pyrrolidin-1-yl)-3,3-dimethyl-1-oxobutan-2-ylamino)-2-oxoethylcarbamate], the IC50 (1% in DMSO) was 1110 nM.
Work on CCc1ncsc1-c1ccc(CNC(=O)[C@@H]2C[C@@H](O)CN2C(=O)[C@H](C(C)C)N2Cc3ccccc3C2=O)cc1 [Example 5, (2S,4R)—N-(4-(4-ethylthiazol-5-yl)benzyl)-4-hydroxy-1-((S)-3-methyl-2-(1-oxoisoindolin-2-yl)butanoyl)pyrrolidine-2-carboxamide] yielded an IC50 (0.25% in DMSO) of 7720 nM, an IC50 (1% in DMSO) of 799 nM and an IC50 (10% in DMSO) of 1580 nM.
Cc1ncsc1-c1ccc(CNC(=O)[C@@H]2C[C@@H](O)CN2C(=O)[C@@H](NC(=O)CCC(C)C)C2CCCCC2)cc1 [Example 56, (2S,4R)-1-((S)-2-cyclohexyl-2-(4-methylpentanamido)acetyl)-4-hydroxy-N-(4-(4-methylthiazol-5-yl)benzyl)pyrrolidine-2-carboxamide] gave an IC50 (1% in DMSO) of 878 nM and an IC50 (10% in DMSO) of 1480 nM.
Cc1ncsc1-c1ccc(CNC(=O)[C@@H]2C[C@@H](O)CN2C(=O)[C@@H](NC(=O)C(C)C)C(C)(C)C)cc1 [Example 27, (2S,4R)-4-hydroxy-1-((S)-2-isobutyramido-3,3-dimethylbutanoyl)-N-(4-(4-methylthiazol-5-yl)benzyl)pyrrolidine-2-carboxamide] gave an IC50 (0.25% in DMSO) of ~1570 nM, an IC50 (1% in DMSO) of 3040 nM and an IC50 (10% in DMSO) of 8310 nM.
In the case of Cc1ncsc1-c1ccc(CNC(=O)[C@@H]2C[C@@](O)(CO)CN2C(=O)[C@H](C(C)C)N2Cc3ccccc3C2=O)cc1 [Example 144, (2S,4S)-4-hydroxy-4-(hydroxymethyl)-1-((S)-3-methyl-2-(1-oxoisoindolin-2-yl)butanoyl)-N-(4-(4-methylthiazol-5-yl)benzyl)pyrrolidine-2-carboxamide], the “VHL FP Assay IC50” value (1% in DMSO) is reported as “Not active”.
For Cc1ncsc1-c1ccc(CNC(=O)[C@@H]2C[C@@H](O)CN2C(=O)C2(N3Cc4ccccc4C3=O)CCCC2)cc1 [Example 50, (2S,4R)-4-hydroxy-N-(4-(4-methylthiazol-5-yl)benzyl)-1-(1-(1-oxoisoindolin-2-yl)cyclopentanecarbonyl)pyrrolidine-2-carboxamide], the IC50 (10% in DMSO) was 235000 nM.
Compound Cc1ncsc1-c1ccc(CNC(=O)[C@@H]2C[C@@H](O)CN2C(=O)[C@H](C(C)C)N2Cc3ccc(F)cc3C2=O)cc1 [Example 9] has an IC50 (0.25% in DMSO) of 1280 nM, an IC50 (1% in DMSO) of 309 nM and an IC50 (10% in DMSO) of 498 nM.
Work on CC(C)[C@@H](C(=O)N1C[C@H](O)C[C@H]1C(=O)NCc1ccc(-c2ccnn2C)cc1)N1Cc2ccccc2C1=O [Example 92, (2S,4R)-4-hydroxy-N-(4-(1-methyl-1H-pyrazol-5-yl)benzyl)-1-((S)-3-methyl-2-(1-oxoisoindolin-2-yl)butanoyl)pyrrolidine-2-carboxamide] yielded an IC50 (1% in DMSO) of 1650 nM.
In the case of CC(C)[C@@H](C(=O)N1C[C@H](O)C[C@H]1C(=O)NCc1ccc(C2CCCCC2)cc1)N1Cc2ccccc2C1=O [Example 117, (2S,4R)—N-(4-cyclohexylbenzyl)-4-hydroxy-1-((S)-3-methyl-2-(1-oxoisoindolin-2-yl)butanoyl)pyrrolidine-2-carboxamide], the IC50 (1% in DMSO) is reported as 15500 nM.
CC(C)[C@@H](C(=O)N1C[C@H](O)C[C@H]1C(=O)NCc1ccc(-c2scnc2C2CC2)cc1)N1Cc2ccccc2C1=O [Example 2, (2S,4R)—N-(4-(4-cyclopropylthiazol-5-yl)benzyl)-4-hydroxy-1-((S)-3-methyl-2-(1-oxoisoindolin-2-yl)butanoyl)pyrrolidine-2-carboxamide] showed an IC50 (0.25% in DMSO) of 2860 nM, an IC50 (1% in DMSO) of 732 nM and an IC50 (10% in DMSO) of 533 nM.
With CC(C)[C@@H](C(=O)N1C[C@H](O)C[C@H]1C(=O)NCc1ccc(-c2ccno2)cc1)N1Cc2ccccc2C1=O [Example 136, (2S,4R)-4-hydroxy-N-(4-(isoxazol-5-yl)benzyl)-1-((S)-3-methyl-2-(1-oxoisoindolin-2-yl)butanoyl)pyrrolidine-2-carboxamide] the IC50 (1% in DMSO) was 5590 nM.
Cc1ncsc1-c1ccc(CNC(=O)[C@@H]2C[C@@H](O)CN2C(=O)[C@@H](N2Cc3ccccc3C2=O)C(C)(C)C)cc1 [Example 65, (2S,4R)-1-((S)-3,3-dimethyl-2-(1-oxoisoindolin-2-yl)butanoyl)-4-hydroxy-N-(4-(4-methylthiazol-5-yl)benzyl)pyrrolidine-2-carboxamide] showed an IC50 (1% in DMSO) of 631 nM and an IC50 (10% in DMSO) of 578 nM.
Compound CCCC(=O)N[C@H](C(=O)N1C[C@H](O)C[C@H]1C(=O)NCc1ccc(-c2scnc2C)cc1)C(C)(C)C [Example 13, (2S,4R)-1-((S)-2-butyramido-3,3-dimethylbutanoyl)-4-hydroxy-N-(4-(4-methylthiazol-5-yl)benzyl)pyrrolidine-2-carboxamide] has an IC50 (0.25% in DMSO) of 3370 nM, an IC50 (1% in DMSO) of 1340 nM and an IC50 (10% in DMSO) of 2940 nM.
Compound Cc1ncsc1-c1ccc(CNC(=O)[C@@H]2C[C@@H](O)CN2C(=O)[C@@H](C(C)C)N2Cc3ccc(F)cc3C2=O)cc1 [Example 10, (2S,4R)-1-((R)-2-(6-fluoro-1-oxoisoindolin-2-yl)-3-methylbutanoyl)-4-hydroxy-N-(4-(4-methylthiazol-5-yl)benzyl)pyrrolidine-2-carboxamide] has an IC50 (1% in DMSO) of ~6730 nM and an IC50 (10% in DMSO) of 295000 nM.
With CC(C)[C@@H](C(=O)N1C[C@H](O)C[C@H]1C(=O)NCc1ccc(C2=CCCC2)cc1)N1Cc2ccccc2C1=O [Example 116, (2S,4R)—N-(4-cyclopentenylbenzyl)-4-hydroxy-1-((S)-3-methyl-2-(1-oxoisoindolin-2-yl)butanoyl)pyrrolidine-2-carboxamide] the IC50 (1% in DMSO) was 3900 nM.
For CC(C)[C@@H](C(=O)N1C[C@](C)(O)C[C@H]1C(=O)O)N1Cc2ccccc2C1=O [Example 79, (2S,4R)-4-hydroxy-4-methyl-1-[(2S)-3-methyl-2-(1-oxo-2,3-dihydro-1H-isoindol-2-yl)butanoyl]pyrrolidine-2-carboxylic acid], the IC50 (1% in DMSO) was > 100000 nM and the IC50 (10% in DMSO) was > 100000 nM.
Cc1ncsc1-c1ccc(CNC(=O)[C@@H]2C[C@@H](O)CN2C(=O)c2ccccc2)cc1 [Example 64, (2S,4R)-1-benzoyl-4-hydroxy-N-(4-(4-methylthiazol-5-yl)benzyl)pyrrolidine-2-carboxamide] showed an IC50 (1% in DMSO) of 16800 nM and an IC50 (10% in DMSO) of 30500 nM.
For Cc1ncsc1-c1ccc(CNC(=O)[C@@H]2C[C@@H](O)CN2C(=O)[C@H](C(C)C)N2Cc3ccccc3C2=O)cc1F [Example 93, (2S,4R)—N-(3-fluoro-4-(4-methylthiazol-5-yl)benzyl)-4-hydroxy-1-((S)-3-methyl-2-(1-oxoisoindolin-2-yl)butanoyl)pyrrolidine-2-carboxamide], the IC50 (1% in DMSO) was 1200 nM.
